One compound from publication PMC11016761, “Production of Mono-Hydroxylated Derivatives of Terpinen-4-ol by Bacterial CYP102A1 Enzymes” (Journal of Microbiology and Biotechnology, 2023) can be followed below.

The assay addresses CYP102A1 (Priestia megaterium, UniProt P14779, E144G/E268V/F82I/F88V/L189Q/N214S/R48L). Put plainly: UV-visible spectral binding titration (type II shift); also turnover by HPLC with NADPH-generating system (Km […]).

CYP102A1, sequence (P14779 whole entry R48L/F82I/F88V/E144G/L189Q/N214S/E268V): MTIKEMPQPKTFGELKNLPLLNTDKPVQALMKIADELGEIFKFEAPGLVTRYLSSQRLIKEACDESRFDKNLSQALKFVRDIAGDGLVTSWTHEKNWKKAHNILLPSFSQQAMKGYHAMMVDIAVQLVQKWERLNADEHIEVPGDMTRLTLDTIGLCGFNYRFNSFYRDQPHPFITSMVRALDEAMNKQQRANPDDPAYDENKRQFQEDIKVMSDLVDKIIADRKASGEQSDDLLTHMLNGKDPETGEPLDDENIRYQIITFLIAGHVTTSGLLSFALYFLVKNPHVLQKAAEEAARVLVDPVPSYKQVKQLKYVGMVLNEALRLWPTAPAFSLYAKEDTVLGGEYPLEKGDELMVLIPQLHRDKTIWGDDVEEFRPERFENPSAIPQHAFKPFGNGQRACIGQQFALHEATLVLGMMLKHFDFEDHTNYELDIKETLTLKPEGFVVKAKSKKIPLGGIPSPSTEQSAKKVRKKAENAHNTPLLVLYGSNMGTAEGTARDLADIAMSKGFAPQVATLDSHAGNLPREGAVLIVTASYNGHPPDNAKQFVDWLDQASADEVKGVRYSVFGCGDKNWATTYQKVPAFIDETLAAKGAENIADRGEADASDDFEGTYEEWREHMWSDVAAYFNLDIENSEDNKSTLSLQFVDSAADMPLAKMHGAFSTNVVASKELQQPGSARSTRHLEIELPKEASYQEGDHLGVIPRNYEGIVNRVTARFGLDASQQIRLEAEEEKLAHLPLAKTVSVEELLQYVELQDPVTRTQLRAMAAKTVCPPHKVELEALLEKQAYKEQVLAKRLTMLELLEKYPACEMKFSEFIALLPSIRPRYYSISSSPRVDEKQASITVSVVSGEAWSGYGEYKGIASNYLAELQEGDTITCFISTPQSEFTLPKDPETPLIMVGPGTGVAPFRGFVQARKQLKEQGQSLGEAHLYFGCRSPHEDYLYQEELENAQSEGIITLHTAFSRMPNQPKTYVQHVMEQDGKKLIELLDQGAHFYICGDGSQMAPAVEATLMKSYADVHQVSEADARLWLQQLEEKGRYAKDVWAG

Turning to `CC1=CCC(O)(C(C)C)CC1` (racemic) [terpinen-4-ol], the Kd was determined as 920 ± 260 nM.
